In ChEMBL document CHEMBL1201862, “PubChem BioAssay data set” (2004):
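48-hour exposure; five concentrations; linearly interpolated endpoints. GI50: concentration for 50% inhibition of growth.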 Active and inactive are the calls of the source. No stated cut-off is given here; in the data, active = GI50 up to about 1.1 µM and inactive = higher. Square brackets hold non-standard residues; d marks the D form. Peptide text beside a SMILES is read from it. 2Nal = N[CH](Cc1ccc2ccccc2c1)C(=O)O

Experiments:
Experiment in all cases: NCI tumour cell line growth inhibition, 48 h
SNB-78 = system: SNB-78
HOP-18 = system: HOP-18
DMS-273 = system: DMS-273
DLD-1 = system: DLD-1
KM-20L2 = system: KM-20L2
LXFL 529 = system: LXFL 529
M19-MEL = system: M19-MEL
XF498 = system: XF498
RXF 631 = system: RXF 631

Compound	GI50 (SNB-78)	GI50 (HOP-18)	GI50 (DMS-273)	GI50 (DLD-1)	GI50 (KM-20L2)	GI50 (LXFL 529)	GI50 (M19-MEL)	GI50 (XF498)	GI50 (RXF 631)
O=C(CSc1nnc(Cc2ccccc2)o1)Nc1cccc([N+](=O)[O-])c1	> 100 µM (inactive)	> 100 µM (inactive)	> 100 µM (inactive)	> 100 µM (inactive)	> 100 µM (inactive)	> 100 µM (inactive)	> 100 µM (inactive)	–	–
COc1cc(OC)c(C(=O)c2cccs2)cc1N	> 100 µM (inactive)	23.7 µM (inactive)	> 100 µM (inactive)	> 100 µM (inactive)	> 100 µM (inactive)	> 100 µM (inactive)	> 100 µM (inactive)	> 100 µM (inactive)	> 100 µM (inactive)
CCOc1ccc(NCC(=O)N2CC(=O)Nc3ccccc32)cc1	> 100 µM (inactive)	> 100 µM (inactive)	> 100 µM (inactive)	> 100 µM (inactive)	> 100 µM (inactive)	> 100 µM (inactive)	> 100 µM (inactive)	> 100 µM (inactive)	–
COc1cc(NC(C)=O)c2[nH]c3c(C)cc(NC(C)=O)c(C)c3c2c1	–	> 100 µM (inactive)	> 100 µM (inactive)	> 100 µM (inactive)	> 100 µM (inactive)	> 100 µM (inactive)	> 100 µM (inactive)	> 100 µM (inactive)	–
O=C1c2ccccc2C(=O)N1Cc1ccccc1-c1c2nc(c(-c3ccccc3CN3C(=O)c4ccccc4C3=O)c3ccc([nH]3)c(-c3ccccc3CN3C(=O)c4ccccc4C3=O)c3nc(c(-c4ccccc4CN4C(=O)c5ccccc5C4=O)c4ccc1[nH]4)C=C3)C=C2	> 100 µM (inactive)	> 100 µM (inactive)	> 100 µM (inactive)	> 100 µM (inactive)	> 100 µM (inactive)	> 100 µM (inactive)	> 100 µM (inactive)	–	–
C/C(CC(=O)Nc1ccc(Cl)cc1)=N\NC(=O)C[n+]1ccccc1	> 100 µM (inactive)	–	> 100 µM (inactive)	> 100 µM (inactive)	> 100 µM (inactive)	> 100 µM (inactive)	–	> 100 µM (inactive)	> 100 µM (inactive)
NCCNc1ccc(NCCN)c2c1C(=O)c1c(O)ccc(O)c1C2=O	0.207 µM (active)	0.361 µM (active)	< 0.001 µM (active)	0.0336 µM (active)	0.0181 µM (active)	0.00807 µM (active)	0.0197 µM (active)	< 0.001 µM (active)	< 0.001 µM (active)
Cc1cc(NS(=O)(=O)c2ccc(NC(=O)COC(=O)c3cccc4c(=O)c5ccccc5[nH]c34)cc2)no1	> 100 µM (inactive)	–	> 100 µM (inactive)	> 100 µM (inactive)	> 100 µM (inactive)	> 100 µM (inactive)	> 100 µM (inactive)	> 100 µM (inactive)	–
COC(=O)C(CC(C)C)NC(=O)NC12CC3CC(CC(F)(C3)C1)C2 (stereo unspecified)	> 100 µM (inactive)	–	–	> 100 µM (inactive)	> 100 µM (inactive)	> 100 µM (inactive)	> 100 µM (inactive)	–	> 100 µM (inactive)
Cc1c(C)c2cc3c(=O)c(CCl)coc3c(C)c2oc1=O	> 100 µM (inactive)	> 100 µM (inactive)	–	–	> 100 µM (inactive)	> 100 µM (inactive)	> 100 µM (inactive)	–	> 100 µM (inactive)
CC(=O)OC1CC2OC(Cc3ccccc32)O1 (stereo unspecified)	> 100 µM (inactive)	32.8 µM (inactive)	> 100 µM (inactive)	64.1 µM (inactive)	> 100 µM (inactive)	> 100 µM (inactive)	60.4 µM (inactive)	> 100 µM (inactive)	–
COC(=O)C(Cc1nc2ccc(Cl)cc2nc1O)/C(=N/O)C(=O)Nc1cccc(Cl)c1C (stereo unspecified)	> 100 µM (inactive)	> 100 µM (inactive)	> 100 µM (inactive)	> 100 µM (inactive)	> 100 µM (inactive)	> 100 µM (inactive)	> 100 µM (inactive)	> 100 µM (inactive)	–
CC(C)OC(=O)C1Cc2c([nH]c3ccccc23)C(c2ccccc2)N1 (stereo unspecified)	> 100 µM (inactive)	–	> 100 µM (inactive)	23.6 µM (inactive)	> 100 µM (inactive)	79.6 µM (inactive)	> 100 µM (inactive)	> 100 µM (inactive)	–
CCOC(=O)/C(C#N)=C1/C(O)=C(C(=O)OC)C(C(=O)OC)=C1C(=O)OC.c1ccncc1	–	–	> 100 µM (inactive)	> 100 µM (inactive)	> 100 µM (inactive)	> 100 µM (inactive)	> 100 µM (inactive)	–	–
CCOc1cccc2sc(N)nc12	> 100 µM (inactive)	> 100 µM (inactive)	> 100 µM (inactive)	> 100 µM (inactive)	> 100 µM (inactive)	> 100 µM (inactive)	> 100 µM (inactive)	–	–
Cc1ccccc1NC(=O)C(=O)CC(=O)c1ccc([N+](=O)[O-])cc1	> 100 µM (inactive)	> 100 µM (inactive)	> 100 µM (inactive)	> 100 µM (inactive)	> 100 µM (inactive)	> 100 µM (inactive)	> 100 µM (inactive)	> 100 µM (inactive)	> 100 µM (inactive)
C[N+](C)(C)CC(=O)N/N=C(\CCC(=O)NCCc1ccccc1)CC(=O)c1ccccc1	> 100 µM (inactive)	> 100 µM (inactive)	> 100 µM (inactive)	> 100 µM (inactive)	> 100 µM (inactive)	> 100 µM (inactive)	> 100 µM (inactive)	> 100 µM (inactive)	–
CCOC12OC3=C(CC1CC1=C(CCC1=O)O2)C(=O)CC3 (stereo unspecified)	> 100 µM (inactive)	> 100 µM (inactive)	> 100 µM (inactive)	> 100 µM (inactive)	> 100 µM (inactive)	> 100 µM (inactive)	> 100 µM (inactive)	–	> 100 µM (inactive)
Cc1nc2ccc(NCCN(C)C)c3c(=O)c4cc(O)ccc4n1c23	–	–	0.189 µM (active)	0.148 µM (active)	–	0.752 µM (active)	1.54 µM (inactive)	1.56 µM (inactive)	0.0355 µM (active)
CCOC(=O)CC1=CSC2=NCCN12	> 100 µM (inactive)	> 100 µM (inactive)	> 100 µM (inactive)	> 100 µM (inactive)	> 100 µM (inactive)	> 100 µM (inactive)	> 100 µM (inactive)	> 100 µM (inactive)	> 100 µM (inactive)
COc1cc(C(=O)C/C(CCC(=O)Nc2ccc(Cl)cc2Cl)=N/NC(=O)C(N)=O)ccc1O	> 100 µM (inactive)	> 100 µM (inactive)	> 100 µM (inactive)	> 100 µM (inactive)	> 100 µM (inactive)	> 100 µM (inactive)	> 100 µM (inactive)	> 100 µM (inactive)	> 100 µM (inactive)
CC(C)C(NC(=O)C(CCCCN)NC(=O)C(Cc1c[nH]c2ccccc12)NC(=O)C(Cc1ccc(O)cc1)NC(=O)C(CS)NC(=O)C(N)Cc1ccc2ccccc2c1)C(=O)NC(CS)C(=O)NC(C(N)=O)C(C)O (stereo unspecified) (H-[2Nal]CYWKVCT-NH2; configuration not given here)	8.15 µM (inactive)	> 100 µM (inactive)	> 100 µM (inactive)	> 100 µM (inactive)	> 100 µM (inactive)	> 100 µM (inactive)	> 100 µM (inactive)	> 100 µM (inactive)	> 100 µM (inactive)
